Values quoted from earlier work as cited in US12533348B2, “Ferroportin-inhibitors for the use in the treatment of transfusion-dependent beta-thalassemia (TDT)” (Vifor (International) AG, priority 2019, dated 2026).

Tested on: guinea pigs
Settings: intravenous administration, cited from earlier work

## O=C(NCc1ncccc1F)c1csc(CCNCc2nc3ccccc3[nH]2)n1 [VIT-2653]
Guinea pigs
  NTBI and Hb levels following exchange transfusion: significantly improved
  total iron in kidneys following transfusion: can be reduced
Transfused guinea pigs
  occurrence of changes in plasma creatinine >0.3 mg/dL (indicator of early AKI): significantly reduced
